pEC50, pIC50: −log10 of the molar value.
Experiments:
[1] = Oral pharmacokinetics in rats; format: in vivo; conditions: Rat, 10 mg/kg
Description: The oral bioavailability of Compound A1 (free base) was evaluated in rats and mice. The protocol for the pharmacokinetics studies in rat is provided below.
All animals were fasted overnight (12 hours) before dosing and continued till 4.0 hours after administration of test item. Test item formulations were prepared in 1% Tween 80 and 99% media (0.5% Methyl cellulose, 4000cPs, pH 2.2). The blood samples (150 μL from each animal) were collected from the orbital sinus, and placed into a micro centrifuge tube containing disodium EDTA as an anticoagulant. Blood samples were centrifuged immediately with a speed of 1000 g for 10 min at 4° C. and separated plasma samples were frozen at below −80° C. and stored until analysis. The concentrations of test item in all formulations were analyzed by HPLC. The plasma concentrations of test item in all samples were analyzed by LC-MS/MS. Pharmacokinetic parameters (Cmax, AUC0-t, Tmax, and t^1/2) were estimated by using WinNonlin software. Results are provided in Table 3 for Compound A, A1, and Example 128 of WO 2012/151525 in rats and Compound A1 in mice.

IL-2 = experiment: Assay 6A: Cytokine assay in human PBMC, PHA induced IL-2; format: cell-based; conditions: PHA 20 μg/ml, 24 hours, 2-3 independent experiments, read-out: EC50, antigen-induced IL-2
Description: (§1) The objective of this study was to assess the inhibitory potential of Compound A1 on antigen-induced cytokine release in human PBMC
(§2) • Heparinized human whole blood was diluted 1:1 with PBS, over laid on leukocyte separation medium and centrifuged at 400 g for 40 minutes. • Buffy layer was removed and washed with PBS • 0.15*10^6 of PBMCs were plated in 100 μl per well in RPMI media and incubated for 2 h. • 50 μl of 3× of the compound dilution in media was added and incubated for 15 min. • TNFα—induced with 50 μl of LPS in RPMI such that final concentration was 1 μg/ml. Supernatant was collected at 6 hours. • IL-2-induced with 50 μl of PHA in RPMI such that final concentration was 20 μg/ml. Supernatant was collected at 24 hours. • IL-4-induced with 50 μl of PHA in RPMI such that final concentration was 20 μg/ml.
(§3) EC50 values were calculated from 2-3 independent experiments.

[2] = Metabolic stability in human liver microsomes; format: in vitro ADME; conditions: 1 μM test item, 60 minutes, 37° C., NADPH
Description: (§4) Metabolic stability studies were conducted on Compounds A, A1, and A2 as well as Example 128 of WO 2012/151525 using mouse, rat, dog, monkey, and human liver microsomes. The protocol for the studies with mouse, rat, and human liver microsomes (all from BD Gentest, USA) is provided below. 0.4 mg protein was preincubated with 2 mM NADPH (cofactor) in phosphate buffer (pH-7.4) for 15 minutes at 37° C. and then added with 1 μM test item and incubated further for 60 minutes in triplicate. The reaction mixture was terminated with methanol containing an internal standard and centrifuged further to analyze the test item remaining in the supernatant by LC-MS/MS. The percent parent compound remaining was calculated in comparison with similar samples terminated at 0 minutes.

[3] = Metabolic stability in rat liver microsomes; format: in vitro ADME; conditions: 1 μM test item, 60 minutes, 37° C., NADPH
Description: as §4

Female Wistar rats = experiment: Assay 11: Collagen induced arthritis (CIA) in Wistar rats; format: in vivo; conditions: rat CIA, dosed therapeutically, 10 mg/kg/QD
PI3K alpha = molecular target: T1, PI3K alpha (Mus musculus, UniProt P42337); experiment: Assay 4A4: PDGF induced Akt phosphorylation in 3T3 cells; format: cell-based; conditions: 3T3 fibroblasts
T1 construct: endogenous in cells; host or cells: 3T3 fibroblasts
T1 sequence (P42337 whole entry): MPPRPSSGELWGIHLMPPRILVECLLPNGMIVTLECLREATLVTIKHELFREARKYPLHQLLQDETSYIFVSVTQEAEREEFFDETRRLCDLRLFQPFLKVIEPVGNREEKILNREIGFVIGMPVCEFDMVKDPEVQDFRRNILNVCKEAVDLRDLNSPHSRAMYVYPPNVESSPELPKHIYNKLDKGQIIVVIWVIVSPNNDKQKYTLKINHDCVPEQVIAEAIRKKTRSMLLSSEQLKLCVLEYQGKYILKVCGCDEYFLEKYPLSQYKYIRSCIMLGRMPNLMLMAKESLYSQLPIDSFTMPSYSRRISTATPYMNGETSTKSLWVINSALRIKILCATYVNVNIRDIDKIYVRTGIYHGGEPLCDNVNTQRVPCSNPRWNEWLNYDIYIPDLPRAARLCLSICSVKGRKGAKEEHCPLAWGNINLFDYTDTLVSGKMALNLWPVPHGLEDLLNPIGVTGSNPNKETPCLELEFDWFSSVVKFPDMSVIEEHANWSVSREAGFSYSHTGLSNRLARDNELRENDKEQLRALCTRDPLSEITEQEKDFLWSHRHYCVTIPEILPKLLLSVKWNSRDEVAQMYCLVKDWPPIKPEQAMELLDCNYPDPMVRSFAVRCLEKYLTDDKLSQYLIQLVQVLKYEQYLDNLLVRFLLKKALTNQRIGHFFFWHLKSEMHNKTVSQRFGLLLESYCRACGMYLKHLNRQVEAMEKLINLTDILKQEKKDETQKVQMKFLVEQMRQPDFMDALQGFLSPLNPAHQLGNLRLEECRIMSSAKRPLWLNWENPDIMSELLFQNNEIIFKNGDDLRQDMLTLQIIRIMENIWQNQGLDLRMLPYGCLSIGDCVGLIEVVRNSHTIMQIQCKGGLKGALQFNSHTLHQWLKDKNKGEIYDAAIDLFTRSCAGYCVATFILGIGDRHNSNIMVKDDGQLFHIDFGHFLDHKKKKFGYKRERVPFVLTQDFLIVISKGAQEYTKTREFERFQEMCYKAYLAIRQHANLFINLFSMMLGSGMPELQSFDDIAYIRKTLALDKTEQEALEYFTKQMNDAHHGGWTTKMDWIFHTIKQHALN
T1 sequence (P26450 whole entry partner): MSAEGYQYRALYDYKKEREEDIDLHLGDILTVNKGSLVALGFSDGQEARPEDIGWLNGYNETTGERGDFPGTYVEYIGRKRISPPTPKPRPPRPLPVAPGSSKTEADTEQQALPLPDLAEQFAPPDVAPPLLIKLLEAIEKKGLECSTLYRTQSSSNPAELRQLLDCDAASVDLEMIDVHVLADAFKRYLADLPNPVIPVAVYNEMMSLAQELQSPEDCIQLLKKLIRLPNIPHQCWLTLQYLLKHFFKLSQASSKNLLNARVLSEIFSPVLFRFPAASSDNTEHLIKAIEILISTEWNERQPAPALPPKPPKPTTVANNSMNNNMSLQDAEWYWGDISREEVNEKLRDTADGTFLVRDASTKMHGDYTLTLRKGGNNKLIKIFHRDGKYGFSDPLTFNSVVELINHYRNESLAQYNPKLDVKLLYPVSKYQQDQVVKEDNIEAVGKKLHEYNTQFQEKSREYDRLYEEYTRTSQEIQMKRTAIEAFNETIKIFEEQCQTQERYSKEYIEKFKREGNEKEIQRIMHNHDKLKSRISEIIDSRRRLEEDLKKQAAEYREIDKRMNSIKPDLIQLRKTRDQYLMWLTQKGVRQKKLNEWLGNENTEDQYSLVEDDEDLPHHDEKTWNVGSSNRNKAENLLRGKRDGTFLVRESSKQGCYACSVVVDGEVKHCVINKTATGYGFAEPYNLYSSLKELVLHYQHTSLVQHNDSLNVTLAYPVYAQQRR
Description: The objective of this study was to determine the effect of Compound A1 on PI3Kα kinase mediated AktS473 phosphorylation in PDGF induced 3T3 fibroblasts. • 3T3 cells were treated with desired concentrations of the test compound for 15 minutes. 1 ml of 2× PDGF was added such that the final concentration was 20 ng/ml and incubated for 10 minutes. • Media was discarded and washed with 1 ml of ice-cold 1× PBS. • 250 μl of cell lysis buffer was added and incubated on ice for 30 minutes. • Samples were centrifuged and supernatant was collected and stored at −80° C. until analysis. • Samples were analyzed by Western Blotting using pAKT (S473) as the primary and anti-rabbit IgG-HRP as a secondary antibody. • Intensity of the bands was determined using ImageJ 1.42q (NIH, USA) and normalized to Actin (loading control). Data was plotted using GraphPad Prism (Version 5.02).

[4] = Metabolic stability in mouse liver microsomes; format: in vitro ADME; conditions: 1 μM test item, 60 minutes, 37° C., NADPH
Description: as §4

[5] = Plasma protein binding (equilibrium dialysis), mouse; format: in vitro ADME; conditions: pH 7.4, 37° C.
Description: Below is provided the procedure for measuring plasma protein binding (using an equilibrium dialysis method). 745 μL of plasma was transferred into a 2 ml micro centrifuge tube. To that 5 μL of Compound A1 (150 μM) was added. Samples were mixed in the table top vortexer for 2 minutes. 50 μL plasma (n=2) was transferred in a pre-labeled 1.5 mL micro centrifuge tube treated as 0 hour sample.
The remaining 650 μL plasma sample were incubated for 30 minutes at 37° C. in a water bath. After 30 minute incubation, 50 μL plasma (n=2) was removed in a pre-labelled 1.5 mL micro centrifuge tube treated as 0.5 hour sample. 200 μL of the plasma sample (n=2) was transferred into the sample chamber which was indicated by the red ring. The red insert was placed into the base plate and 350 μL of buffer was transferred into the buffer chamber. Plates were incubated at 37° C. at approximately 100 RPM on an orbital shaker or 20 RPM on an up-and-down shaker for 4 hours. 50 μL of post dialysis-sample from the buffer and the plasma chambers were transferred into a pre-labelled micro centrifuged tube. 50 μL of plasma was added to the buffer samples and an equal volume of buffer (KH2PO4 Buffer pH 7.4) to the collected plasma samples. 150 μL of methanol containing internal standard (Tolbutamide 250 ng/ml) was added to precipitate the protein and release compound. […]

IL-4 = experiment: Assay 6A: Cytokine assay in human PBMC, PHA induced IL-4; format: cell-based; conditions: PHA 20 μg/ml, 48 hours, 2-3 independent experiments, read-out: EC50, antigen-induced IL-4
Description: as §1, §2, §3

fold increase in AUC0-t as compared to Example 128 of WO 2012/151525 [1]: 48 fold | fold increase in Cmax as compared to Example 128 of WO 2012/151525 [1]: ~16 fold | fold increase in t1/2 as compared to Example 128 of WO 2012/151525 [1]: ~1.6 fold | AUC(0-t) ([1]; plasma): 97.8 µM·h | Cmax ([1]; plasma): 11.4 µM | Tmax ([1]; plasma): 1.83 h | half-life ([1]; plasma): 2.45 h | pEC50 (IL-2): 8.02 | Metabolic stability in liver microsomes (percent parent compound remaining), Human [2]: 95.7% | Metabolic stability in liver microsomes (percent parent compound remaining), Rat [3]: 94.2% | inhibition of PDGF induced AktS473 phosphorylation at 10 μM (PI3K alpha; 10 μM): No inhibition | pIC50 (PI3K alpha; PDGF 20 ng/ml, read-out: Cellular IC50 PI3K alpha (PDGF induced pAKT in 3T3 fibroblasts)): < 5.00 | Metabolic stability in liver microsomes (percent parent compound remaining), Mouse [4]: 85.9% | fraction unbound at 4 h, 1 μM [5]: 0.0239 | pEC50 (IL-4): 8.46
SMILES: COc1ccc(-c2nn([C@@H](C)c3oc4cccc(F)c4c(=O)c3-c3cccc(F)c3)c3ncnc(N)c23)cc1NS(C)(=O)=O [Compound A1, (S)—N-(5-(4-amino-1-(1-(5-fluoro-3-(3-fluorophenyl)-4-oxo-4H-chromen-2-yl)ethyl)-1H-pyrazolo[3,4-d]pyrimidin-3-yl)-2-methoxyphenyl)methanesulfonamide]
inhibition of cartilage (histopathology of all the hind and fore paws) (Female Wistar rats): 46.51% | inhibition of inflammation (histopathology of all the hind and fore paws) (Female Wistar rats): 58.3% | inhibition of pannus (histopathology of all the hind and fore paws) (Female Wistar rats): 49.18% | reducing ankle diameter (Female Wistar rats): significant efficacy | reducing the average paw volumes of both the hind paws (Female Wistar rats): significant efficacy | reduction of the clinical score (Female Wistar rats; prophylactic and therapeutic paws): significant efficacy

Source: patent US20190202836A1, “SELECTIVE DUAL INHIBITORS OF PI3 DELTA AND GAMMA PROTEIN KINASES” (Rhizen Pharmaceuticals SA, priority 2014, published 2019)
